Reference: ChEMBL document CHEMBL3259757, “B-ring modified aurones as promising allosteric inhibitors of hepatitis C virus RNA-dependent RNA polymerase” (Eur J Med Chem, 2014)

What was measured:
[1] = system: Hepatitis C virus subtype 1b; experiment: Inhibition of HCV J4 genotype 1b NS5Bdelta21 polymerase using homopolymeric RNA at 20 uM by SYBR Green assay
[2] = Inhibition of HCV J4 genotype 1b NS5Bdelta21 polymerase using homopolymeric RNA by SYBR Green assay; design: species or system Hepatitis C virus subtype 1b

inhibition [1] | IC50 [2] | Structure (SMILES)
90% | 4 µM | CCCCOc1ccc(/C=C2\Oc3cc(O)cc(O)c3C2=O)c(OCCCC)c1
95% | 3.4 µM | O=C1/C(=C/c2ccc3ccccc3c2)Oc2cc(O)cc(O)c21
96% | 2.4 µM | O=C1/C(=C/c2cn(Cc3cccc(Br)c3)c3ccccc23)Oc2cc(O)cc(O)c21
98.4% | 3 µM | CCCCn1c(/C=C2\Oc3cc(O)cc(O)c3C2=O)cc2ccccc21
92.5% |  | CCCCn1cc(/C=C2\Oc3cc(O)cc(O)c3C2=O)c2cccc(C)c21
93% | 3.3 µM | O=C1/C(=C/c2cn(CC3CCCCC3)c3ccccc23)Oc2cc(O)cc(O)c21
94.7% | 3 µM | CC(C)=CCn1cc(/C=C2\Oc3cc(O)cc(O)c3C2=O)c2ccccc21
93.1% |  | CCCCn1cc(/C=C2\Oc3cc(O)cc(O)c3C2=O)c2cccc(OC)c21
42% |  | O=C1/C(=C/c2ccc3ccccc3n2)Oc2cc(O)cc(O)c21
90% | 6 µM | Cn1cc(/C=C2\Oc3cc(O)cc(O)c3C2=O)c2ccccc21
27% | > 16 µM | O=C1/C(=C/c2ccco2)Oc2cc(O)cc(O)c21
53.5% |  | CCCCn1cc(/C=C2\Oc3cc(O)cc(O)c3C2=O)c2cc(O)ccc21
99.3% | 2.4 µM | O=C1/C(=C/c2cn(Cc3cccc(O)c3)c3ccccc23)Oc2cc(O)cc(O)c21
93% | 4 µM | O=C1/C(=C/c2ccc(-c3ccccc3)cc2)Oc2cc(O)cc(O)c21
81% |  | CCCCOc1ccc(/C=C2\Oc3cc(O)cc(O)c3C2=O)cc1
45% |  | O=C1/C(=C/c2cccc3ccccc23)Oc2cc(O)cc(O)c21
93.8% |  | CCCCn1cc(/C=C2\Oc3cc(O)cc(O)c3C2=O)c2cc(OC)ccc21
55% | > 16 µM | Cn1cccc1/C=C1\Oc2cc(O)cc(O)c2C1=O

inhibition [1] | IC50 [2] | Structure (SMILES)
98.9% | 2.3 µM | CCCCn1cc(/C=C2\Oc3cc(O)cc(O)c3C2=O)c2cccc(O)c21
80.7% | 8 µM | CC(C)Cn1cc(/C=C2\Oc3cc(O)cc(O)c3C2=O)c2ccccc21
97% | 4 µM | O=C1/C(=C/c2ccc(-c3cccs3)cc2)Oc2cc(O)cc(O)c21
96% | 5.4 µM | O=C1/C(=C/c2ccc(C(F)(F)F)cc2)Oc2cc(O)cc(O)c21
90% | 5 µM | CN(C)c1ccc(/C=C2\Oc3cc(O)cc(O)c3C2=O)cc1
95.6% | 2.6 µM | Cc1cccc(Cn2cc(/C=C3\Oc4cc(O)cc(O)c4C3=O)c3ccccc32)c1
94.3% |  | CCCCn1ccc2cc(/C=C3\Oc4cc(O)cc(O)c4C3=O)ccc21
70% |  | O=C(O)CCCn1cc(/C=C2\Oc3cc(O)cc(O)c3C2=O)c2ccccc21
91.6% |  | CCCCn1c(C)c(/C=C2\Oc3cc(O)cc(O)c3C2=O)c2ccccc21
96.2% | 2.6 µM | O=C1/C(=C/c2cn(Cc3ccccc3)c3ccccc23)Oc2cc(O)cc(O)c21
95.4% | 2.7 µM | COc1cccc(Cn2cc(/C=C3\Oc4cc(O)cc(O)c4C3=O)c3ccccc32)c1
93.9% | 3.2 µM | O=C1/C(=C/c2cn(CCc3ccccc3)c3ccccc23)Oc2cc(O)cc(O)c21
97.8% | 3.1 µM | Cn1c(/C=C2\Oc3cc(O)cc(O)c3C2=O)cc2ccccc21
33% | > 16 µM | O=C1/C(=C/c2ccc(CO)o2)Oc2cc(O)cc(O)c21
81% | 10 µM | O=C1/C(=C/c2ccc3[nH]cnc3c2)Oc2cc(O)cc(O)c21
93% | 5.5 µM | O=C1/C(=C/c2ccc(N3CCCCC3)cc2)Oc2cc(O)cc(O)c21
93% | 2.7 µM | O=C1/C(=C/c2cn(CCCc3ccccc3)c3ccccc23)Oc2cc(O)cc(O)c21
96% |  | CCCCn1cc(/C=C2\Oc3cc(O)cc(O)c3C2=O)c2cc(C)ccc21

Structure (SMILES) | inhibition [1] | IC50 [2]
O=C1/C(=C/c2cnc[nH]2)Oc2cc(O)cc(O)c21 | 39% | > 16 µM
